Experimental data as given in the supplement of paper PMC10307832.

Experiments:
Test in all cases: relative viability (nuclei count vs DMSO), 5 days (fraction); higher = more cells survive
[1] = compound: C1CSC2=C(C(=O)N1)SC3=C2C=C(C=C3)O [kb NB 142-70] + CC(C)C[C@H](NC(=O)[C@H](Cc1ccccc1)NC(=O)c1cnccn1)B(O)O [Bortezomib] (partner 0.002 µM)
Summary of the method: (§1)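 Five library-drug doses in √10 steps were combined with a fixed anchor-drug dose, or a single drug was given alone, by pin tool to lung cancer cell lines in 1536-well plates the day after seeding. Nuclei were stained and counted after 5 days. Relative viability is the nuclei count in treated wells over that in vehicle wells, taken as the median of duplicate plates.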

[2] = compound: NCC(=O)Nc1ccc(-n2nc(C(F)(F)F)cc2-c2ccc3c(ccc4ccccc43)c2)cc1 + CCNC(=O)c1noc(-c2cc(C(C)C)c(O)cc2O)c1-c1ccc(CN2CCOCC2)cc1 [Luminespib] (partner 0.01 µM)
Summary of the method: as §1

[3] = compound: NCC(=O)Nc1ccc(-n2nc(C(F)(F)F)cc2-c2ccc3c(ccc4ccccc43)c2)cc1 + C[C@]1(O)C[C@@H](c2nc(-c3ccc4ccc(-c5ccccc5)nc4c3)c3c(N)nccn32)C1 [Linsitinib] (partner 1 µM)
Summary of the method: as §1

[4] = compound: NCC(=O)Nc1ccc(-n2nc(C(F)(F)F)cc2-c2ccc3c(ccc4ccccc43)c2)cc1 + Cc1nc(Nc2ncc(C(=O)Nc3c(C)cccc3Cl)s2)cc(N2CCN(CCO)CC2)n1 [Dasatinib] (partner 0.075 µM)
Summary of the method: as §1

Row | Cell Line | relative viability ([1]; first compound 0.1 µM) | relative viability ([1]; first compound 1 µM) | relative viability ([1]; first compound 3.162 µM) | relative viability ([2]; first compound 0.02 µM) | relative viability ([2]; first compound 0.06325 µM) | relative viability ([2]; first compound 0.2 µM) | relative viability ([2]; first compound 0.6325 µM) | relative viability ([2]; first compound 2 µM) | relative viability ([3]; first compound 0.02 µM) | relative viability ([3]; first compound 0.06325 µM) | relative viability ([3]; first compound 0.2 µM) | relative viability ([3]; first compound 0.6325 µM) | relative viability ([3]; first compound 2 µM) | relative viability ([4]; first compound 0.02 µM) | relative viability ([4]; first compound 0.06325 µM) | relative viability ([4]; first compound 0.2 µM) | relative viability ([4]; first compound 0.6325 µM) | relative viability ([4]; first compound 2 µM)
1 | NCI-H2228 | 1.08 | 0.689 | 0.303 | 0.144 | 0.16 | 0.177 | 0.154 | 0.16 | 0.872 | 0.676 | 0.707 | 0.603 | 0.79 | 0.561 | 0.571 | 0.523 | 0.472 | 0.533
2 | NCI-H2347 | 1.03 | 0.808 | 1.07 | 0.427 | 0.634 | 0.7 | 0.686 | 0.7 | 0.953 | 0.98 | 1.04 | 1.07 | 1.01 | 0.36 | 0.365 | 0.301 | 0.326 | 0.298
3 | NCI-H2405 | 0.969 | 0.993 | 1.01 | 0.686 | 0.74 | 0.606 | 0.732 | 0.746 | 0.91 | 1.01 | 0.923 | 0.921 | 0.971 | 0.225 | 0.202 | 0.185 | 0.201 | 0.221
4 | NCI-H3122 | 1.09 | 1.06 | 1.03 | 0.0686 | 0.0831 | 0.127 | 0.113 | 0.116 | 1.06 | 1.09 | 1.03 | 1.04 | 1.04 | 0.862 | 0.837 | 0.824 | 0.912 | 0.799
5 | PC-3 [JPC-3] | 0.8 | 0.83 | 0.898 | 0.66 | 0.709 | 0.728 | 0.724 | 0.776 | 0.957 | 0.977 | 0.992 | 0.963 | 0.961 | 1.08 | 0.981 | 1.02 | 1.03 | 1.11
6 | PC-14 | 0.896 | 0.932 | 0.82 | 0.146 | 0.154 | 0.19 | 0.218 | 0.182 | 1.07 | 0.917 | 1.05 | 0.936 | 0.993 | 0.281 | 0.303 | 0.297 | 0.234 | 0.302
7 | RERF-LC-KJ | 1.18 | 1.29 | 0.946 | 1.32 | 1.29 | 1.27 | 1.19 | 1.1 | 0.923 | 0.84 | 0.9 | 0.857 | 0.982 | 0.809 | 0.985 | 0.835 | 0.878 | 0.76
8 | SK-LU-1 | 1.19 | 1.05 | 0.839 | 0.208 | 0.182 | 0.193 | 0.206 | 0.18 | 1.16 | 1.1 | 1.5 | 1.15 | 1.15 | 0.165 | 0.186 | 0.181 | 0.175 | 0.181
9 | SW 1573 | 1.18 | 0.967 | 0.322 | 0.252 | 0.151 | 0.151 | 0.677 | 0.209 | 0.851 | 0.748 | 0.863 | 0.846 | 0.789 | 0.471 | 0.383 | 0.586 | 0.471 | 0.424
